Test results reported in US12180226B2, “Spirotricycle RIPK1 inhibitors and methods of uses thereof” (Merck Sharp & Dohme LLC, priority 2021, dated 2024).
Structures can show the parent of a compound that is named as a salt.

What follows are compounds tested against RIPK1 (recombinant GST-RIPK1 kinase domain, residues 1-327) (Homo sapiens (Human), UniProt Q13546) (assay: RIPK1-ADP-Glo Enzymatic Assay). Settings: ADP-Glo; 25 nM GST-RIPK1, 300 μM ATP; assay lower limit ~25 nM; read-out: RIPK1 V0 Ec50.
RIPK1 (recombinant GST-RIPK1 kinase domain, residues 1-327), sequence (Q13546 1-327): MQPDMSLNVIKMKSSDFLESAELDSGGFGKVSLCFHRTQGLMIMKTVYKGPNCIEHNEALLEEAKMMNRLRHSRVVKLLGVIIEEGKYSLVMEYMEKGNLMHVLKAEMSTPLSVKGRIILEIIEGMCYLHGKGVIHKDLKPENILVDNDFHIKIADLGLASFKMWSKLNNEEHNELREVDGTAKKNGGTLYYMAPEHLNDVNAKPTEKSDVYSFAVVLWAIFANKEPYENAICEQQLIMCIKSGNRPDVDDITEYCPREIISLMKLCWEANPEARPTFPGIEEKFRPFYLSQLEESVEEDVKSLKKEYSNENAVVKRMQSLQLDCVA
Assay type: biochemical
In short: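 Compounds titrated 10-pt 1:3 from 100000 nM top (1% DMSO); 30 min preinc w/ 25 nM Sf21-expressed enzyme, RT; start w/ ATP (300 μM final) + dephos-MBP (3 μM); 150 min; ADP-Glo lumi; 4-param fit → EC50.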

Row | Structure (SMILES) | EC50 [nM]
1 | Cc1nc(N2CCC3(CC2)O[C@@H]2CC[C@@H](c4cc(F)cc(F)c4)N2C3=O)ccc1C#N [Example 4.42, 6-[(5′S,7a′R)-5′-(3,5-difluorophenyl)-3′-oxotetrahydro-1H,3′H-spiro[piperidine-4,2′-pyrrolo[2,1-b] [1,3]oxazol]-1-yl]-2-methylpyridine-3-carbonitrile] | < 25
2 | N#Cc1cncc([C@@H]2CC[C@H]3OC4(CCN(c5ccnc6c(F)cnn56)CC4)C(=O)N32)c1 [Example 4.127, 5-[(5′S,7a′R)-1-(3-fluoropyrazolo[1,5-a]pyrimidin-7-yl)-3′-oxotetrahydro-3′H-spiro[piperidine-4,2′-pyrrolo[2,1-b] [1,3]oxazol]-5′-yl]pyridine-3-carbonitrile] | < 25
3 | O=C1N2[C@@H](CC[C@H]2C2CCCC2)OC12CCN(c1ccnc3c(F)cnn13)CC2 [Example 4.88, (5′S,7a′R)-5′-cyclopentyl-1-(3-fluoropyrazolo [1,5-a]pyrimidin-7-yl)tetrahydro-3′H-spiro[piperidine-4,2′-pyrrolo[2,1-b]oxazol]-3′-one, TFA salt] | < 25
4 | O=C1N2[C@@H](CC[C@H]2c2cc(F)cc(F)c2)OC12CCN(c1cccc3ccnn13)CC2 [Example 15.2, (5′S,7a′R)-5′-(3,5-difluorophenyl)-1-(pyrazolo[1,5-a]pyridin-7-yl)tetrahydro-3′H-spiro[piperidine-4,2′-pyrrolo[2,1-b]oxazol]-3′-one, TFA] | < 25
5 | O=C(c1ccc(O)cc1F)N1CCC2(CC1)O[C@@H]1CC[C@@H](c3cc(F)cc(F)c3)N1C2=O [Example 5.55, (5′S,7a′R)-5′-(3,5-difluoro-phenyl)-1-(2-fluoro-4-hydroxybenzoyl)tetrahydro-3′H-spiro[piperidine-4,2′-pyrrolo[2,1-b]oxazol]-3'-one] | 26.2
6 | N#Cc1cc(N2CC3(C2)O[C@@H]2CC[C@@H](c4cc(F)cc(F)c4)N2C3=O)ncn1 [Example 4.118, 6-((5′S,7a′R)-5′-(3,5-difluorophenyl)-3′-oxotetrahydro-3′H-spiro[azetidine-3,2′-pyrrolo[2,1-b]oxazol]-1-yl)pyrimidine-4-carbonitrile] | 228
7 | N#Cc1ccc(C(=O)N2CCC3(CC2)O[C@@H]2CC[C@@H](c4cc(F)cc(F)c4)N2C3=O)cc1F [Example 5.19, 4-((5′S,7a′R)-5′-(3,5-difluorophenyl)-3′-oxo-tetrahydro-3′H-spiro [piperidine-4,2′-pyrrolo-[2,1-b]oxazole]-1-carbon-yl)-2-fluorobenzonitrile] | 333
8 | O=C1CCc2nc(N3CCC4(CC3)O[C@@H]3CC[C@@H](c5ccccc5)N3C4=O)ccc21 [Example 4.196, (5′S,7a′R)-1-(5-oxo-6,7-dihydro-5H-cyclopenta[b]pyridin-2-yl)-5′-phenyltetrahydro-3′H-spiro[piperidine-4,2′-pyrrolo[2,1-b] [1,3]oxazol]-3′-one] | 31.7
9 | NC(=O)c1cc(N2CCC3(CC2)O[C@@H]2CC[C@@H](c4cc(F)cc(F)c4)N2C3=O)ncn1 [Example 4.185, 6-[(5′S,7a′R)-5′-(3,5-difluorophenyl)-3′-oxotetrahydro-1H,3′H-spiro[piperidine-4,2′-pyrrolo[2,1-b] [1,3]oxazol]-1-yl]pyrimidine-4-carboxamide] | 83
10 | N#Cc1cn[nH]c1C(=O)N1CCC2(CC1)O[C@@H]1CC[C@@H](c3cc(F)cc(F)c3)N1C2=O [Example 5.40, 5-((5′S,7a′R)-5′-(3,5-difluorophenyl)-3′-oxo-tetrahydro-3′H-spiro [piperidine-4,2′-pyrrolo-[2,1-b]oxazole]-1-carbon-yl)-1H-pyrazole-4-car-bonitrile] | 459
11 | Cc1nccnc1[C@@H]1CC[C@H]2OC3(CCN(c4ccnc5c(F)cnn45)CC3)C(=O)N21 [Example 4.144, (5′S,7a′R)-1-(3-fluoropyrazolo[1,5-a]pyrimidin-7-yl)-5′-(3-methylpyrazin-2-yl)tetrahydro-3′H-spiro[piperidine-4,2′-pyrrolo[2,1-b] [1,3]oxazol]-3′-one] | 41.7
12 | Cc1nc(N2CCC3(CC2)O[C@@H]2CC[C@@H](c4ccccc4F)N2C3=O)ccc1C#N [Example 4.105, 6-((5′S,7a′R)-5′-(2-fluorophenyl)-3′-oxotetrahydro-3′H-spiro[piperidine-4,2′-pyrrolo[2,1-b]oxazol]-1-yl)-2-methylnicotinonitrile] | < 25
13 | O=C1N2[C@@H](CC[C@H]2c2cccc(F)c2)OC12CCN(c1cc(F)ccn1)CC2 [Example 4.126, (5′S,7a′R)-5′-(3-fluorophenyl)-1-(4-fluoropyridin-2-yl)tetrahydro-3′H-spiro[piperidine-4,2′-pyrrolo[2,1-b] [1,3]oxazol]-3′-one] | 46.7
14 | CC1CC2(CCN1c1ccnc3ccnn13)O[C@@H]1CC[C@@H](c3ccccc3)N1C2=O (stereo partly drawn) [Example 4.231, (4R,5′S,7a′R)-2-methyl-5′-phenyl-1-(pyrazolo[1,5-a]pyrimidin-7-yl)tetrahydro-3′H-spiro[piperidine-4,2′-pyrrolo[2,1-b] [1,3]oxazol]-3′-one] | < 25
15 | Cc1nnc(C(=O)N2CCC3(CC2)O[C@@H]2CC[C@@H](c4cc(F)cc(F)c4)N2C3=O)o1 [Example 5.76, (5′S,7a′R)-5′-(3,5-difluoro-phenyl)-1-(5-methyl-1,3,4-oxadiazole-2-carbonyl)-tetrahydro-3′H-spiro[piperi-dine-4,2′-pyrrolo[2,1-b] [1,3]oxazol]-3′-one] | 924

Now from value to compound:

Row | EC50 [nM] | Structure (SMILES)
16 | 263 | O=C(c1cnnc2ccccc12)N1CCC2(CC1)O[C@@H]1CC[C@@H](c3cc(F)cc(F)c3)N1C2=O [Example 6.58, (5′S,7a′R)-1-(cinn-oline-4-carbonyl)-5′-(3,5-difluorophenyl) tetrahydro-3′H-spiro [piperidine-4,2′-pyrrolo[2,1-b][1,3]-oxazol]-3'-one]
17 | 547 | O=C(c1ncnc2c1CCC2)N1CCC2(CC1)O[C@@H]1CC[C@@H](c3cc(F)cc(F)c3)N1C2=O [Example 6.15, (5′S,7a′R)-5′-(3,5-difluorophenyl)-1-(6,7-dihydro-5H-cyclopenta[d]pyrim-idine-4-carbonyl)-tetrahydro-3′H-spiro [piperidine-4,2′-pyrrolo-[2,1-b][1,3]oxazol]-3′-one]
18 | < 25 | N#Cc1cccc([C@@H]2CC[C@H]3OC4(CCN(c5ccnc6c(F)cnn56)CC4)C(=O)N32)c1F [Example 20.5, 2-fluoro-3-[(5′S,7a′R)-1-(3-fluoropyrazolo[1,5-a]pyrimidin-7-yl)-3′-oxotetrahydro-3′H-spiro[piperidine-4,2′-pyrrolo[2,1-b][1,3]oxazol]-5′-yl]benzonitrile]
19 | < 25 | O=C1N2[C@@H](CC[C@H]2c2ccccc2F)OC12CCN(c1ccnc(-c3cnn(C(F)F)c3)c1)CC2 [Example 10.4, (5′S,7a′R)-1-{2-[1-(difluoromethyl)-1H-pyrazol-4-yl]pyridin-4-yl}-5′-(2-fluorophenyl)tetrahydro-3′H-spiro[piperidine-4,2′-pyrrolo[2,1-b][1,3]oxazol]-3′-one]
20 | 182 | O=C(c1ccnc2ncnn12)N1CCC2(CC1)O[C@@H]1CC[C@@H](c3cc(F)cc(F)c3)N1C2=O [Example 6.76, (5′S,7a′R)-5′-(3,5-difluorophenyl)-1-([1,2,4]triazolo[1,5-a]pyrimidine-7-car-bonyl)tetrahydro-3′H-spiro[piperidine-4,2′-pyrrolo[2,1-b] [1,3]oxazol]-3′-one]
21 | 103 | O=C1N2[C@@H](CC[C@H]2c2ccccc2F)OC12CN(Cc1ccccc1)C2 [Example 22.7, (5′S,7a′R)-1-benzyl-5′-(2-fluorophenyl)tetrahydro-3′H-spiro[azetidine-3,2′-pyrrolo[2,1-b][1,3]oxazol]-3′-one]
22 | 40.6 | O=C(c1cc(F)ccn1)N1CCC2(CC1)O[C@@H]1CC[C@@H](c3cc(F)cc(F)c3)N1C2=O [Example 6.92, (5′S,7a′R)-5′-(3,5-difluorophenyl)-1-(4-fluoropyridine-2-carbonyl)tetrahydro-3′H-spiro[piperidine-4,2′-pyrrolo[2,1-b] [1,3]oxazol]-3′-one]
23 | < 25 | Cc1cccc(C(=O)N2CCC3(CC2)O[C@@H]2CC[C@@H](c4ccccc4)N2C3=O)c1F [Example 6.157, (5′S,7a′R)-1-(2-fluoro-3-methylbenzene-1-carbonyl)-5′-phenyl-tetrahydro-3′H-spiro [piperidine-4,2′-pyrrolo[2,1-b][1,3]-oxazol]-3′-one]
24 | 159 | O=C1N2[C@@H](CC[C@H]2c2cc(F)cc(F)c2)OC12CCN(c1ccc(C3CCC3)c3ccnn13)CC2 [Example 18.1, (5′S,7a′R)-1-(4-Cyclobutylpyrazolo[1,5-a]pyridin-7-yl)-5′-(3,5-difluorophenyl)tetrahydro-3′H-spiro[piperidine-4,2′-pyrrolo[2,1-b]oxazol]-3′-one, TFA salt]
25 | < 25 | O=C1N2[C@@H](CC[C@H]2c2ccccc2)OC12CCN(c1ccc(-c3ncco3)cn1)CC2 [Example 21.16, (5′S,7a′R)-1-[5-(1,3-oxazol-2-yl)pyridin-2-yl]-5′-phenyltetrahydro-3′H-spiro[piperidine-4,2′-pyrrolo[2,1-b][1,3]oxazol]-3′-one]
26 | < 25 | O=C(c1ccccc1)N1CCC2(CC1)O[C@@H]1CC[C@@H](c3cccc(F)c3F)N1C2=O [Example 17.10, (5′S,7a′R)-1-benzoyl-5′-(2,3-difluorophenyl)tetrahydro-3′H-spiro[piperidine-4,2′-pyrrolo[2,1-b]oxazol]-3′-one]
27 | 30.5 | O=C(c1ccc(F)c(F)n1)N1CCC2(CC1)O[C@@H]1CC[C@@H](c3cc(F)cc(F)c3)N1C2=O [Example 6.94, (5′S,7a′R)-5′-(3,5-difluorophenyl)-1-(5,6-difluoropyridine-2-carbonyl)tetrahydro-3′H-spiro[piperidine-4,2′-pyrrolo[2,1-b] [1,3]oxazol]-3′-one]
